Experimental data published in patent publication US12377070B2, “Substituted sulfoximine derivatives” (CADILA HEALTHCARE LIMITED, priority 2019, dated 2025).
Counter-ions that a name gives are not always drawn. Like-named read-outs stand apart in the source and are kept apart here.

System: IL-1β
Assay: In vitro IL-1β inhibition in PMA-differentiated, LPS-primed, ATP-stimulated THP1 monocytes
Format: cell-based
Conditions: primed with 500 ng/mL LPS 4 hrs, compound 30 min, 5 mM ATP 1 hr, IL-1b in supernatant, read-out: IC50 (in vitro IL-1β inhibitory activity)
Description: THP1 monocytes were differentiated with PMA (100 ng/mL) and incubated at 37° C. for 20 hours in presence of 5% CO2. 2×10^5 differentiated cells were plated per well of 96 well tissue culture plates. The cells were primed using 500 ng/mL Lipopolysaccharide and incubating for 4 hrs under the same condition. The cells were then treated with various concentrations of the compounds for 30 min followed by treatment with 5 mM ATP for 1 hr. The supernatants were collected and analysed by IL-1b (Mabtech Cat #3415-1H-20) or TNF-a (Mabtech; Cat #3510-1H-20) detection kit. The data were analyzed using GraphPad Prism V7.0. Dose Response Curve (DRC) was constructed to determine the IC50 value by fitting percentage […] data to the GraphPad Prism using nonlinear regression analysis.

[1] = Homo sapiens, THP-1, THP1 cells differentiated with PMA 100 ng/mL

Row | Structure (SMILES) | IC50 [1] | also measured
1 | N#CN=S(=O)(/C=C/[C@H]1CCCN1)NC(=O)Nc1c2c(cc3c1CCC3)CCC2 (stereo partly drawn) [Example 10, (E)-N′-cyano-N-((1,2,3,5,6,7-hexahydro-s-indacen-4-yl)carbamoyl)-2-((R)-pyrrolidin-2-yl)ethene-1-sulfonimidamide hydrochloride] | 6.4 µM | 
2 | C[C@@]1(/C=C/S(=O)(=NC#N)NC(=O)Nc2c3c(cc4c2CCC4)CCC3)CCCN1 (stereo partly drawn) [Example 4, (E)-N′-cyano-N-((1,2,3,5,6,7-hexahydro-s-indacen-4-yl)carbamoyl)-2-((S)-2-methylpyrrolidin-2-yl)ethene-1-sulfonimidamide hydrochloride] |  | IC50 (THP1 cells differentiated with PMA 100 ng/mL, hydrochloride): 20 µM
3 | CC(C)CN1CCC[C@@]1(C)/C=C/S(=O)(=NC#N)NC(=O)Nc1c2c(cc3c1CCC3)CCC2 (stereo partly drawn) [Example 24, (E)-N′-cyano-N-((1,2,3,5,6,7-hexahydro-s-indacen-4-yl)carbamoyl)-2-((S)-1-isobutyl-2-methylpyrrolidin-2-yl)ethene-1-sulfonimidamide] | 15 µM | 
4 | C[C@@]1(/C=C/S(=O)(=NC#N)NC(=O)Nc2c3c(cc4c2CCC4)CCC3)CCCN1C1CCC1 (stereo partly drawn) [Example 19, (E)-N′-cyano-2-((S)-1-cyclobutyl-2-methylpyrrolidin-2-yl)-N-((1,2,3,5,6,7-hexahydro-s-indacen-4-yl)carbamoyl)ethene-1-sulfonimidamide] | 4.6 µM | 
5 | N#CN=S(=O)(/C=C/[C@H]1CCCN1S(=O)(=O)C1CCCCC1)NC(=O)Nc1c2c(cc3c1CCC3)CCC2 (stereo partly drawn) [Example 8, (E)-N′-cyano-2-((R)-1-(cyclohexylsulfonyl)pyrrolidin-2-yl)-N-((1,2,3,5,6,7-hexahydro-s-indacen-4-yl)carbamoyl)ethene-1-sulfonimidamide] | 12 µM | 
6 | C[C@@]1(/C=C/S(=O)(=NC#N)NC(=O)Nc2c3c(cc4c2CCC4)CCC3)CCCN1CC1CC1 (stereo partly drawn) [Example 21, (E)-N′-cyano-2-((S)-1-(cyclopropylmethyl)-2-methylpyrrolidin-2-yl)-N-((1,2,3,5,6,7-hexahydro-s-indacen-4-yl)carbamoyl)ethene-1-sulfonimidamide] | 4.6 µM | 
7 | C[C@@]1(/C=C/S(=O)(=NC#N)NC(=O)Nc2c3c(cc4c2CCC4)CCC3)CCCN1 (stereo partly drawn) [Example 20, (E)-N′-cyano-N-((1,2,3,5,6,7-hexahydro-s-indacen-4-yl)carbamoyl)-2-((S)-2-methylpyrrolidin-2-yl)ethene-1-sulfonimidamide] |  | IC50 (THP1 cells differentiated with PMA 100 ng/mL): 3.2 µM
8 | CC(C)(C)OC(=O)N1CCC[C@@]1(C)/C=C/S(=O)(=NC#N)NC(=O)Nc1c2c(cc3c1CCC3)CCC2 (stereo partly drawn) [Example 3, tert-butyl (2S)-2-((E)-2-(N′-cyano-N-((1,2,3,5,6,7-hexahydro-s-indacen-4-yl)carbamoyl)sulfamidimidoyl)vinyl)-2-methylpyrrolidine-1-carboxylate] | 19 µM | 
9 | CC(=O)N1CCC[C@@]1(C)/C=C/S(=O)(=NC#N)NC(=O)Nc1c2c(cc3c1CCC3)CCC2 (stereo partly drawn) [Example 25, (E)-2-((S)-1-acetyl-2-methylpyrrolidin-2-yl)-N′-cyano-N-((1,2,3,5,6,7-hexahydro-s-indacen-4-yl)carbamoyl)ethene-1-sulfonimidamide] | 19 µM | 
10 | CC(C)(C)OC(=O)N1CCC[C@]1(C)/C=C/S(=O)(=NC#N)NC(=O)Nc1c2c(cc3c1CCC3)CCC2 (stereo partly drawn) [Example 13, tert-butyl (2R)-2-((E)-2-(N′-cyano-N-((1,2,3,5,6,7-hexahydro-s-indacen-4-yl)carbamoyl)sulfamidimidoyl)vinyl)-2-methylpyrrolidine-1-carboxylate] | 4 µM | 
11 | CCN1CCC[C@@]1(C)/C=C/S(=O)(=NC#N)NC(=O)Nc1c2c(cc3c1CCC3)CCC2 (stereo partly drawn) [Example 26, (E)-N′-cyano-2-((S)-1-ethyl-2-methylpyrrolidin-2-yl)-N-((1,2,3,5,6,7-hexahydro-s-indacen-4-yl)carbamoyl)ethene-1-sulfonimidamide] | 19 µM | 
12 | CN1CCC[C@]1(C)/C=C/S(=O)(=NC#N)NC(=O)Nc1c2c(cc3c1CCC3)CCC2 (stereo partly drawn) [Example 15, (E)-N′-cyano-2-((R)-1,2-dimethylpyrrolidin-2-yl)-N-((1,2,3,5,6,7-hexahydro-s-indacen-4-yl)carbamoyl)ethene-1-sulfonimidamide] | 2.1 µM | 
13 | CN1CCC[C@@]1(C)/C=C/S(=O)(=NC#N)NC(=O)Nc1c2c(cc3c1CCC3)CCC2 (stereo partly drawn) [Example 7, (E)-N′-cyano-2-((S)-1,2-dimethylpyrrolidin-2-yl)-N-((1,2,3,5,6,7-hexahydro-s-indacen-4-yl)carbamoyl)ethene-1-sulfonimidamide] | 1.5 µM | 
14 | C[C@@]1(/C=C/S(=O)(=NC#N)NC(=O)Nc2c3c(cc4c2CCC4)CCC3)CCCN1C1CCCC1 (stereo partly drawn) [Example 18, (E)-N′-cyano-2-((S)-1-cyclopentyl-2-methylpyrrolidin-2-yl)-N-((1,2,3,5,6,7-hexahydro-s-indacen-4-yl)carbamoyl)ethene-1-sulfonimidamide] | 18 µM | 
15 | C[C@@]1(/C=C/S(=O)(=NC#N)NC(=O)Nc2c3c(cc4c2CCC4)CCC3)CCCN1 (stereo partly drawn) [Example 22, (E)-N′-cyano-N-((1,2,3,5,6,7-hexahydro-s-indacen-4-yl)carbamoyl)-2-((S)-2-methylpyrrolidin-2-yl)ethene-1-sulfonimidamide 2,2,2-trifluoroacetate] |  | IC50 (THP1 cells differentiated with PMA 100 ng/mL, 2,2,2-trifluoroacetate): 8.9 µM
16 | N#CN=S(=O)(/C=C/[C@H]1CCCN1S(=O)(=O)c1ccccc1C#N)NC(=O)Nc1c2c(cc3c1CCC3)CCC2 (stereo partly shown) [Example 9] | 11 µM | 
17 | C[C@@]1(/C=C/S(=O)(=NC#N)NC(=O)Nc2c3c(cc4c2CCC4)CCC3)CCCN1Cc1nccs1 (stereo partly drawn) [Example 29, (E)-N′-cyano-N-((1,2,3,5,6,7-hexahydro-s-indacen-4-yl)carbamoyl)-2-((S)-2-methyl-1-(thiazol-2-ylmethyl)pyrrolidin-2-yl)ethene-1-sulfonimidamide] | 15 µM | 
18 | CC(C)(C)OC(=O)N1CCCC1/C=C/S(=O)(=NC#N)NC(=O)Nc1c2c(cc3c1CCC3)CCC2 [Example 34, tert-butyl (2R)-2-((E)-2-(N′-cyano-N-((1,2,3,5,6,7-hexahydro-s-indacen-4-yl)carbamoyl)sulfamidimidoyl)vinyl)pyrrolidine-1-carboxylate] | 19 µM | 
19 | CC(C)N1CCC[C@@]1(C)/C=C/S(=O)(=NC#N)NC(=O)Nc1c2c(cc3c1CCC3)CCC2 (stereo partly drawn) [Example 17, (E)-N′-cyano-N-((1,2,3,5,6,7-hexahydro-s-indacen-4-yl)carbamoyl)-2-((S)-1-isopropyl-2-methylpyrrolidin-2-yl)ethene-1-sulfonimidamide] | 11 µM | 
20 | CN1CCC[C@@H]1/C=C/S(=O)(=NC#N)NC(=O)Nc1c2c(cc3c1CCC3)CCC2 (stereo partly drawn) [Example 11, (E)-N′-cyano-N-((1,2,3,5,6,7-hexahydro-s-indacen-4-yl)carbamoyl)-2-((R)-1-methylpyrrolidin-2-yl)ethene-1-sulfonimidamide] | 2.3 µM | 
21 | C[C@]1(/C=C/S(=O)(=NC#N)NC(=O)Nc2c3c(cc4c2CCC4)CCC3)CCCN1 (stereo partly drawn) [Example 14, (E)-N′-cyano-N-((1,2,3,5,6,7-hexahydro-s-indacen-4-yl)carbamoyl)-2-((R)-2-methylpyrrolidin-2-yl)ethene-1-sulfonimidamide hydrochloride] | 9 µM | 
22 | C[C@@]1(/C=C/S(=O)(=NC#N)NC(=O)Nc2c3c(cc4c2CCC4)CCC3)CCCN1C(N)=O (stereo partly drawn) [Example 31, (2S)-2-((E)-2-(N′-cyano-N-((1,2,3,5,6,7-hexahydro-s-indacen-4-yl)carbamoyl)sulfamidimidoyl)vinyl)-2-methylpyrrolidine-1-carboxamide] | 9.2 µM | 
